The values that follow come from patent publication US20220127258A1, “AROMATIC RING OR HETEROAROMATIC RING COMPOUNDS, PREPARATION METHOD THEREFOR AND MEDICAL USE THEREOF” (The National Institutes of Pharmaceutical R&D Co., Ltd., priority 2019, published 2022).

The nature of series [1]: Visual inspection of solubility of test sample in extracellular fluid. Type of series: physicochemical. As to conditions: 0.3 μM to 30 μM solutions in extracellular fluid pH 7.4, from DMSO stock. As to the method:
Extracellular fluid: 140 mM NaCl, 3.5 mM KCl, 1 mM MgCl2, 2 mM CaCl2, 10 mM glucose, 10 mM HEPES, 1.25 mM NaH2PO4, pH=7.4 (adjusted by NaOH). The stock solution of the compound of Example 8 of the present invention (30.26 mM solution in DMSO) was successively diluted with 10 mL of extracellular fluid to obtain 0.3 μM, 1 μM, 3 μM, […], and 30 μM solutions. […] 10 mg of Cisapride was dissolved in 2066.29 μL of dimethyl sulfoxide (DMSO) to obtain a 10 mM stock solution. The Cisapride stock solution was successively diluted with dimethyl sulfoxide (DMSO) to obtain a total of 4 concentrations of 1 μM, 10 μM, 100 μM and 1 mM. Before the test, 10 μL of the diluent at each concentration was added to 10 mL of extracellular fluid to ensure that the DMSO concentration was 0.1%. The final working concentration of Cisapride was 1 nM, 10 nM, 100 nM and 1 μM.

Series [2] deals with cholestasis rat induced by ANIT. In words: Efficacy on the cholestasis rat model induced by 1-naphthyl isothiocyanate (ANIT). The format is in vivo, SD rats. The conditions noted are these: for level of ALT, AST, GGT and TBA in the serum of ANIT rat (in words): 3 and 10 mg/kg/d, conclusion of Test Example 2; for ALT / AST / GGT / TBA: serum, 4 days, ANIT rat. Also noted: ALT / AST / GGT / TBA: unit not given here. Here is the method: Animals: SD rats, male, 7 to 8 weeks old, weight: 220 to 240 g, purchased from Beijing Vital River Laboratory Animal Technology Co., Ltd., SPF grade, Certificate No.: SCXK (Beijing) 2016-0011, license issuing administration: Beijing Municipal Commission of Science and Technology.
Sample formulation: The compound of the present invention was added to DMSO, and dissolved completely by ultrasound. 0.5% CMC-Na was added to constant volume (DMSO: 0.5% CMC-Na=1:99), and the solution was homogenized by ultrasound for later use.
After 3 to 5 days of acclimation, the animals were divided into 20 groups according to body weight: normal group, model group, Example 8 (3 mg/kg/d, 10 mg/kg/d) group, Example 11 (3 mg/kg/d, 10 mg/kg/d) group, Example 12 (3 mg/kg/d, 10 mg/kg/d) group, Example 14 (3 mg/kg/d, 10 mg/kg/d) group, Example 20 (3 mg/kg/d, 10 mg/kg/d) group, Example 22 (3 mg/kg/d, 10 mg/kg/d) group, Example 26 (3 mg/kg/d, 10 mg/kg/d) group, Example 28 (3 mg/kg/d, 10 mg/kg/d) group, and Example 29 (3 mg/kg/d, 10 mg/kg/d) group, with 10 rats for each group. Intragastric administration was conducted with an administration volume of 10 mL/kg, once a day, for a total of 4 days. On Day 2, ANIT (1-naphthyl isothiocyanate, Macklin, purity: 98%, item number: N814658, CAS number: 551-06-4, specification: 5 g/bottle, storage conditions: 2 to 8 degrees, batch number: C10116101) with a dose of 50 mg/kg and an administration volume of 5 mL/kg was administered intragastrically once to each animal (except for animals in the normal group) 4 hours after the administration. The animals were fasted on Day 4 morning. The animals were anesthetized by isoflurane inhalation using a small animal anesthesia machine. Blood was collected from the venous plexus behind the eyeball using a capillary glass tube (about 1 ml per animal), and then left to stand for about one hour. It was centrifuged at 3500 rpm for 10 minutes to obtain the serum. ALT, AST, GGT and TBA indexes as well as the plasma concentration of the compound were determined using an AU480 automatic biochemical analysis system (BECKMAN COULTER). Liver was collected, weighed, and cutted into pieces. Normal saline was added (liver weight: normal saline=1:2), and the mixture was homogenized and freezed. The concentration of the compound in liver was determined using an ultra performance liquid chromatograph (Shimadzu, LC 30AD) and triple quadrupole mass spectrometer (AB, TQ5500).

Consider `O=C(O)c1ccc(-c2nnc(N3[C@@H]4CC[C@H]3C[C@@H](OCc3c(-c5c(Cl)cccc5Cl)noc3C3CC3)C4)o2)cc1` [Example 8, 4-(5-((1R,3r,5S)-3-((5-cyclopropyl-3-(2,6-dichlorophenyl)isoxazol-4-yl)methoxy)-8-azabicyclo[3.2.1]octan-8-yl)-1,3,4-oxadiazol-2-yl)benzoic acid], for which the “solubility of the test sample, visually inspected” value in series [1] is “completely dissolved without visible precipitation”. In addition, the “level of ALT, AST, GGT and TBA in the serum of ANIT rat (in words)” value (“level of ALT, AST, GGT and TBA” below) in series [2] is “significantly reduce”. Besides, in series [2] (3 mg/kg/d intragastric), the ALT came out at 164.8 ± 85.0, the AST is given as 401.8 ± 172.8, the GGT turned out to be 2.5 ± 0.7 and the TBA is 100.0 ± 99.8. In series [2] (10 mg/kg/d intragastric), the ALT turned out to be 79.9 ± 98.7, the AST was 243.5 ± 192.6, the GGT amounted to 2.0 ± 0.5 and the TBA is on record as 32.9 ± 68.0.

`O=C(O)c1ccc(-c2nnc(N3[C@@H]4CC[C@H]3C[C@@H](OCc3c(-c5c(Cl)cccc5Cl)noc3C3CC3)C4)o2)s1` [Example 11]: in series [2], the “level of ALT, AST, GGT and TBA” value was “significantly reduce”. Further, in series [2] (3 mg/kg/d intragastric), the ALT worked out at 276.3 ± 118.0, the AST turned out to be 761.3 ± 253.7, the GGT was 4.9 ± 0.9 and the TBA is recorded as 243.4 ± 72.4. In series [2] (10 mg/kg/d intragastric), this compound registered an ALT of 180.3 ± 107.8, an AST of 466.1 ± 242.4, a GGT of 3.7 ± 1.5 and a TBA of 190.3 ± 140.7.

As for `O=C(O)c1ccc(-c2nnc(N3[C@@H]4CC[C@H]3C[C@@H](OCc3c(-c5ccccc5OC(F)(F)F)noc3C3CC3)C4)o2)cc1` [Example 22, 4-(5-((1R,3r,5S)-3-((5-cyclopropyl-3-(2-(trifluoromethoxy)phenyl)isoxazol-4-yl)methoxy)-8-azabicyclo[3.2.1]octan-8-yl)-1,3,4-oxadiazol-2-yl)benzoic acid], in series [2], the “level of ALT, AST, GGT and TBA” value is on record as “significantly reduce”. In series [2] (3 mg/kg/d intragastric), this compound gave an ALT of 100.8 ± 90.9, an AST of 324.8 ± 313.1, a GGT of 2.7 ± 1.7 and a TBA of 73.3 ± 103.2. In series [2] (10 mg/kg/d intragastric), this compound came in with an ALT of 44.5 ± 8.1, an AST of 163.3 ± 21.3, a GGT of 1.8 ± 0.5 and a TBA of 27.4 ± 13.6.

For the compound `Cc1cc(C(=O)O)ccc1-c1nnc(N2[C@@H]3CC[C@H]2C[C@@H](OCc2c(-c4c(Cl)cccc4Cl)noc2C2CC2)C3)o1` [Example 14], the “level of ALT, AST, GGT and TBA” value in series [2] is reported as “significantly reduce”. In series [2] (3 mg/kg/d intragastric), this compound had an ALT of 220.3 ± 104.0, an AST of 643.3 ± 239.3, a GGT of 4.6 ± 1.3 and a TBA of 235.8 ± 80.1. Further, in series [2] (10 mg/kg/d intragastric), the ALT is on record as 45.5 ± 11.9, the AST is on record as 181.4 ± 20.8, the GGT is given as 1.7 ± 0.4 and the TBA is listed as 20.3 ± 12.3.
